In patent US20230322771A1, “HETEROCYCLIC GLP-1 AGONISTS” (Gasherbrum Bio, Inc., priority 2020, published 2023):

Biological target: GLP-1 Receptor (Homo sapiens, UniProt P43220)
Assay: GLP-1R agonist cAMP stimulation assay (HEK293/GLP1R/CRE-LUC cells, HTRF cAMP dynamic 2 kit)
Type: cell-based
Conditions: HEK293/CRE-Luc cell line (HDB) stably expressing GLP-1 Receptor; 30 min incubation at 37° C.; read-out: GLP1R cAMP Stimulation DR: EC50 (nM) [Species: Human, Assay Cell Line: HDB]
Protocol: Activation of GLP-1 receptor is known to stimulate cyclic AMP (cAMP) production in cells which indicates primary coupling to the Gαs subunit of the G protein heterotrimeric complex.
To optimize functional activity directed toward Gαs coupling, a HEK293/CRE-Luc cell line developed by HDB stably expressing the GLP-1 Receptor was used. 200× concentration of compound working solutions were prepared (Agilent Technologies Bravo) with ½ log serial dilution in 384-well Echo LDV plate (Labcyte, Cat #LP-0200). 50 nL/well 200× concentration of compound working solutions were moved to 384-well white low volume plate (Greiner, Cat #784075) using Labcyte ECHO550. 1×10^5 cells/mL HEK293/GLP1R/CRE-LUC(HD Biosciences) cell suspensions prepared with assay buffer[DPBS containing 0.5 mM IBMX(Sigma, Cat #15879) and 0.1% BSA(GENVIEW, Cat #FA016-100 g)], 10 uL cell suspensions were added to each well of previous generated assay plate which already contains 50 nl compound at 200× concentration using ThermoFisher Multidrop Combi(1000 cells/well). Seal the plate and incubate at 37° C. with 5% CO2 for 30 min.
After incubation the cAMP assay signal was generated using cAMP dynamic 2 Kit (Cisbio). 5 μL cAMP-d2 working solution was added to each well, followed with 5 μL Anti-cAMP antibody-cryptate working solution added to each well using ThermoFisher Multidrop Combi. Incubate at room temperature for 1 hour protected from light. Read the fluorescence at 665 and 615 nm with Reader PerkinElmer EnVision.
% Activity=100%×(mean RLU of test sample−mean RLU of vehicle control)/(mean RLU of MAX control−mean RLU of vehicle control))

Sequence of GLP-1 Receptor (P43220 24-463): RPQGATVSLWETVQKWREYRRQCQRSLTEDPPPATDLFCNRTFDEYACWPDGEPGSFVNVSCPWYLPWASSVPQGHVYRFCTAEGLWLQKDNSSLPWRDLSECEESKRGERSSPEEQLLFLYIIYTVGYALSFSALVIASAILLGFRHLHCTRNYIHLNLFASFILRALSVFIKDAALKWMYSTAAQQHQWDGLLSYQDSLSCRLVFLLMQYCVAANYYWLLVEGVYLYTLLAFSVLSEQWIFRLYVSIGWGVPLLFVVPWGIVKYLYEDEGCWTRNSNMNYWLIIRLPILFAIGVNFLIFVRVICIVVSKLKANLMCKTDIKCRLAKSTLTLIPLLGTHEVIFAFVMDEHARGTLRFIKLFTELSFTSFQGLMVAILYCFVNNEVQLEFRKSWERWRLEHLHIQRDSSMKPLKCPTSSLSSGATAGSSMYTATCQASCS

CCS(=O)(=O)C(C)c1ccc(-n2ccn(-c3c4c(nn3-c3cc(C)c(F)c(C)c3)CCN(C(=O)c3cc5cc(C6CCOCC6)ccc5n3C3(c5noc(=O)[nH]5)CC3)[C@H]4C)c2=O)c(F)c1 (stereo partly drawn) [Compound 113a, 3-(1-(2-((4S)-3-(3-(4-(1-(ethylsulfonyl)ethyl)-2-fluorophenyl)-2-oxo-2,3-dihydro-1H-imidazol-1-yl)-2-(4-fluoro-3,5-dimethylphenyl)-4-methyl-4,5,6,7-tetrahydro-2H-pyrazolo[4,3-c]pyridine-5-carbonyl)-5-(tetrahydro-2H-pyran-4-yl)-1H-indol-1-yl)cyclopropyl)-1,2,4-oxadiazol-5(4H)-one]
EC50: 0.55 nM
